From ChEMBL document CHEMBL1201862, “PubChem BioAssay data set” (2004)
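Each compound was tested at five concentrations against cells in 96-well plates for 48 hours. At the GI50, growth is halved.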 Calls of active or inactive are those of the source. No stated cut-off is given here; in the data, active = GI50 up to about 1.1 µM and inactive = higher.

Experiments:
Test in all cases: NCI-60 cell line screen, 48 h
786-0 = test system: 786-0
ACHN = test system: ACHN
CAKI-1 = test system: CAKI-1
HCT-116 = test system: HCT-116
HT-29 = test system: HT-29
Hs-578T = test system: Hs-578T
KM12 = test system: KM12
NCI/ADR-RES = test system: NCI/ADR-RES
OVCAR-4 = test system: OVCAR-4
OVCAR-8 = test system: OVCAR-8
PC-3 = test system: PC-3
RPMI-8226 = test system: RPMI-8226
SK-MEL-2 = test system: SK-MEL-2
SNB-75 = test system: SNB-75
SR = test system: SR
UACC-257 = test system: UACC-257
UACC-62 = test system: UACC-62
UO-31 = test system: UO-31

Measured: GI50

C[N+]1([O-])CCC(O)(C2CC2)CC1 (configuration not stated)
inactive: 786-0 > 100 µM | ACHN > 100 µM | CAKI-1 > 100 µM | HCT-116 > 100 µM | HT-29 > 100 µM | Hs-578T > 100 µM | KM12 > 100 µM | NCI/ADR-RES > 100 µM | OVCAR-4 > 100 µM | OVCAR-8 > 100 µM | PC-3 > 100 µM | RPMI-8226 > 100 µM | SK-MEL-2 > 100 µM | SNB-75 > 100 µM | SR > 100 µM | UACC-257 > 100 µM | UACC-62 > 100 µM | UO-31 > 100 µM

CC1=C2CC(C)(C)CC(=O)C2(C)CCC1=O (configuration not stated)
inactive: 786-0 > 100 µM | ACHN > 100 µM | CAKI-1 > 100 µM | HCT-116 > 100 µM | HT-29 > 100 µM | Hs-578T > 100 µM | KM12 > 100 µM | NCI/ADR-RES > 100 µM | OVCAR-4 > 100 µM | OVCAR-8 > 100 µM | PC-3 > 100 µM | RPMI-8226 3.02 µM | SK-MEL-2 > 100 µM | SNB-75 > 100 µM | SR 94.2 µM | UACC-257 > 100 µM | UACC-62 > 100 µM | UO-31 > 100 µM

Cc1ccccc1N(C)S(=O)(=O)c1ccccc1[N+](=O)[O-]
inactive: 786-0 87.3 µM | ACHN 81.8 µM | CAKI-1 59.3 µM | HCT-116 41.1 µM | HT-29 32.2 µM | Hs-578T 66.1 µM | KM12 55.7 µM | NCI/ADR-RES 25.1 µM | OVCAR-4 67.6 µM | OVCAR-8 75 µM | PC-3 38.9 µM | RPMI-8226 30.1 µM | SK-MEL-2 47.5 µM | SNB-75 47.6 µM | SR 36.6 µM | UACC-257 57 µM | UACC-62 38.8 µM | UO-31 34.3 µM

Fc1cccc(F)c1C1SCc2nc3cc(Cl)ccc3n21 (configuration not stated)
inactive: 786-0 25.7 µM | ACHN 31.3 µM | CAKI-1 16.6 µM | HCT-116 18.5 µM | HT-29 15.2 µM | Hs-578T > 44.7 µM | KM12 22.8 µM | NCI/ADR-RES 24.2 µM | OVCAR-4 35.9 µM | OVCAR-8 58.7 µM | PC-3 34.4 µM | RPMI-8226 22.7 µM | SK-MEL-2 30.6 µM | SNB-75 40.1 µM | SR 17.8 µM | UACC-257 32.8 µM | UACC-62 37.9 µM | UO-31 19.2 µM
